PMC5374619, “The synthetic peptide CIGB-300 modulates CK2-dependent signaling pathways affecting the survival and chemoresistance of non-small cell lung cancer cell lines” (Cancer Cell International, 2017)
pIC50: −log10 of the molar value. Positions of bridges follow the written chain, without caps; N, C: chain ends. Non-standard residues stand in square brackets, D forms with d. Residues, ends and D or L forms follow the SMILES beside them. βAla = NCCC(=O)O

What was measured:
[1] = system: NF-κB-RE-luc in H125 cells; assay: NF-κB-dependent reporter gene expression; assay type: cell-based, human; details: H125, PMA 16 nM 6 h, CIGB-300 IC25 during first hour, dual luciferase
Protocol: H125 cells were transiently co-transfected with NF-κB-RE-luc Luciferase Reporter Vector pGL4.32 and the Renilla Luciferase Control Reporter Vector pRL-TK (Promega, Madison, WI) in a 10:1 ratio, using Fugene (Promega) following manufacturer’s instructions. Briefly, 1 × 10^5 cells/well were seeded onto 24-well plates and transfected the next day. Six hours after adding transfection reagents, cells were washed and complete media was added. After an overnight recovery, cells were treated for 6 h with PMA (16 nM), in presence or not of CIGB-300 (IC25) during the first hour. Finally cells were lysed and the luciferase activities were determined using the Dual-Luciferase Reporter Assay System (Promega) and normalized to the constitutive Renilla luciferase activity.

H125 spheroids = assay: 3D growth inhibition assay, multicellular tumor spheroids; assay type: cell-based, human; details: IC25 and IC50 doses of monolayers, after 5 days of treatment, medium replaced every 48 h
β-CATENIN in H125 cells = assay: Western blot of cytoplasmic β-CATENIN; assay type: cell-based, human
Protocol: (§1) For Wnt/β-CATENIN pathway studies, H125 sub-confluent monolayers were first incubated during 24 h with 50% of CM containing the wnt3a factor and then treated for another 6 h with a low-lethal dose of CIGB-300 (IC25) or during 2 h with the CK2 competitive inhibitor TBB (25 μM) as a control. […] For the analysis of NF-κB downstream targets, H125, A549 or A549-Rcisp cells were incubated for 2 h with CIGB-300 (IC50). In the case of Bortezomib, cells were previously pretreated with 8 nM of this drug during 4 h.
(§2) In order to determine β-CATENIN expression levels, cytoplasmic proteins were extracted using saponin buffer. Briefly, monolayer cultures were incubated for 20 min with ice-cold 0.1% saponin lysis buffer (25 mM Hepes, 75 mM potassium acetate and 0.1% saponin plus phosphatase and protease inhibitors). The extraction procedure was carried out twice and the extracts were pooled prior to their centrifugation. For NF-κB detection, nuclear and cytoplasmic proteins were separated by differential centrifugation following Abcam protocol. Briefly, semiconfluent monolayers were washed twice with ice-cold PBS and then collected in 250 μl of Fractionation Buffer (HEPES 20 mM, KCl 10 mM, MgCl2 2 mM, EDTA 1 mM and 2-Mercaptoethanol […]) with protease and phosphatase inhibitors by scrapping with a Teflon scrapper. […]

[2] = target: T1, α7/C8 (PSMA3) in H125 cells (Homo sapiens, UniProt P25788); assay: Confocal immunofluorescence, co-occurrence with α7/C8; assay type: cell-based; details: H125, biotin-conjugated CIGB-300 30 min, cells with cytoplasmic signal, Manders coefficient
T1 construct: endogenous in cells; host or cells: H125 (NCI-H125) human NSCLC cells
Protocol: H125 cells growing on glass coverslips were treated with biotin-conjugated CIGB-300 for 30 min, washed twice with PBS, fixed in ice cold paraformaldehyde, permeabilized and blocked with PBS containing 5% bovine serum albumin for 1 h at RT. α7/C8 protein was detected by incubation with a specific primary antibody diluted in PBS containing 5% BSA, followed by an incubation with a secondary antibody coupled to Alexa 647 and with Streptavidin-FITC conjugated for 1 h at RT. Nuclei were stained with DAPI. Images were obtained in a LSM 510 Meta confocal Zeiss microscope. Confocal images were processed for presentation with ImageJ. Background of each channel was subtracted. Pearson’s and Mander’s coefficients were calculated using the JACoP plugin [38]. Single cell analysis for 15–20 representative cells was performed on three independent experiments.

proteasome in H125 cells = assay: Proteasome-Glo Chymotrypsin-Like Cell-Based Assay; set-up: species or system human; details: H125, CIGB-300 30 min, luminescence
Protocol: Proteasome activity was assessed in H125 cells using the Proteasome-Glo Chymotrypsin-Like Cell-Based Assay (Promega) following manufacturer’s instructions. Briefly, H125 cells were plated onto 96-well plates and 24 h later treated with CIGB-300 (30 min) or with Bortezomib (4 h). Briefly: 100 µl of Proteasome-Glo™ Cell-Based Reagent were added to each 100 µl of sample and incubated at RT for 10 min. Luminescence emission was measured with a Multimode Microplate Reader, Synergy luminometer (Biotek).

[3] = system: NF-κB p65/relA in H125 cells; assay: Western blot of nuclear p65/RelA; assay type: cell-based, human; details: H125, low-lethal dose (IC25), Western blot of nuclear extracts, with or without PMA
Protocol: as §1, §2

[4] = 24 h post intravenous injection; cited from earlier work
H125 cells = assay: Cell viability, MTS assay, monolayer; assay type: cell-based, human
Protocol: (§3) We used two human non-small cell lung cancer (NSCLC) derived cell lines: the adenosquamous cell carcinoma NCI-H125 (CRL-5801) and the adenocarcinoma NIH-A549 (CCL-185). The murine L Wnt-3A cell line (CRL-2647) was used in order to produce conditioned media (CM) containing the wnt3a factor, following ATCC’s instructions. All cell lines were obtained from ATCC. H125 was grown in RPMI medium supplemented with 10% FBS and 80 µg/ml gentamycin. A549 and L cells were grown in DMEM media, with the above mentioned supplementation. All cell lines were cultured at 37 °C in a humidified air atmosphere with 5% CO2.
(§4) To assess the effect of CIGB-300 or cisplatin on cell viability, 1 × 10^4 cells/well were seeded into 96 well plates in standard culture conditions. Twenty-four hours later cells were treated with different doses of CIGB-300 (25–400 μM) or cisplatin (0.3–30 μM) during 72 h. Cell proliferation was evaluated after 72 h using the MTS assay (Celltiter 96TM Non Radioactive Proliferation Assay, Promega), as described by the manufacturer. Data were analyzed using the R package “ic50” [33] in order to determine the IC50 values for each drug. Alternatively, proliferative potential was determined by assessing cell number. Briefly, cells were seeded onto 35 mm Petri dishes, treated and after 72 h wells were washed twice with PBS, trypsinized, centrifuged, resuspended in a proper volume and finally counted using an hemocytometer and trypan blue exclusion. For apoptosis determination, A549 and A549-cispR cells growing on glass coverslips were treated with 300 μM of CIGB-300 for 18 h and then stained with Acridine orange (10 μg/ml) and Ethidium bromide (10 μg/ml). Visualization was performed with a Nikon, Eclipse E400 epifluorescence microscope. Uniform green nuclei with organized structure were considered as live cells. Bright green or orange to red nuclei were classified as early or late apoptotic cells respectively. Uniformly orange to red nuclei with organized structure were ascribed as necrotic cells. The percentage of dead cells was determined for each cell line.

A549 cells = assay: Cell viability, MTS assay, monolayer; assay type: cell-based, human; details: dose selected from the viability results
Protocol: as §3, §4

[5] = system: A549 and A549-cispR cells; assay: Apoptosis, acridine orange/ethidium bromide double staining; assay type: cell-based, human; details: 300 μM CIGB-300, 18 h
Protocol: To assess the effect of CIGB-300 or cisplatin on cell viability, 1 × 10^4 cells/well were seeded into 96 well plates in standard culture conditions. Twenty-four hours later cells were treated with different doses of CIGB-300 (25–400 μM) or cisplatin (0.3–30 μM) during 72 h. Cell proliferation was evaluated after 72 h using the MTS assay (Celltiter 96TM Non Radioactive Proliferation Assay, Promega), as described by the manufacturer. Data were analyzed using the R package “ic50” [33] in order to determine the IC50 values for each drug. Alternatively, proliferative potential was determined by assessing cell number. Briefly, cells were seeded onto 35 mm Petri dishes, treated and after 72 h wells were washed twice with PBS, trypsinized, centrifuged, resuspended in a proper volume and finally counted using an hemocytometer and trypan blue exclusion. For apoptosis determination, A549 and A549-cispR cells growing on glass coverslips were treated with 300 μM of CIGB-300 for 18 h and then stained with Acridine orange (10 μg/ml) and Ethidium bromide (10 μg/ml). Visualization was performed with a Nikon, Eclipse E400 epifluorescence microscope. Uniform green nuclei with organized structure were considered as live cells. Bright green or orange to red nuclei were classified as early or late apoptotic cells respectively. […] The percentage of dead cells was determined for each cell line.

[6] = up to 40 mg/kg/day intravenously; cited from earlier work
[7] = system: A549 and A549-cispR cells; assay: Viability by cell number after cisplatin; assay type: cell-based, human; details: cell number 72 h after cisplatin, untreated set as 100%
Excerpt: Parental A549 cells were maintained in culture during the same period.

Row | SMILES | NF-κB transcriptional response [1] | volume of treated spheroids compared with untreated controls (H125 spheroids) | β-CATENIN cytoplasmic accumulation with active Wnt pathway (β-CATENIN in H125 cells; H125, 24 h 50% CM with wnt3a, then CIGB-300 IC25 6 h or TBB 25 μM 2 h) | basal levels of cytoplasmic β-CATENIN (β-CATENIN in H125 cells; H125, low-lethal dose CIGB-300 6 h, no wnt3a) | α7/C8 coincident with CIGB-300 presence [2] | proteasomal activity (proteasome in H125 cells) | nuclear levels of p65/relA [3] | peptide uptake at tumor site [4] | IC25 (low-lethal dose) (H125 cells; dose selected from the viability results) [µM] | IC25 (low-lethal dose) (A549 cells) [µM] | number of dead cells on A549-cispR vs A549 [5] | tolerability of high doses [6] | viability of A549-cispR relative to parental A549 after cisplatin treatment [7] | pIC50 (H125 cells; MTS assay, 72 h treatment, R package ic50, three independent experiments)
1 | CSCC[C@@H]1NC(=O)[C@H](Cc2c[nH]c3ccccc23)NC(=O)[C@@H](NC(=O)CCNC(=O)[C@H](CCC(N)=O)NC(=O)[C@@H]2CCCN2C(=O)[C@@H]2CCCN2C(=O)[C@H](CCCNC(=N)N)NC(=O)[C@H](CCCNC(=N)N)NC(=O)[C@H](CCCNC(=N)N)NC(=O)[C@H](CCC(N)=O)NC(=O)[C@H](CCCNC(=N)N)NC(=O)[C@H](CCCNC(=N)N)NC(=O)[C@H](CCCCN)NC(=O)[C@H](CCCCN)NC(=O)[C@H](CCCNC(=N)N)NC(=O)CN)CSSC[C@@H](C(=O)O)NC(=O)[C@H]([C@@H](C)O)NC(=O)CNC(=O)[C@H](CC(C)C)NC(=O)[C@H](Cc2c[nH]cn2)NC(=O)[C@H](CCCNC(=N)N)NC(=O)[C@@H]2CCCN2C(=O)[C@H](CO)NC1=O [CIGB-300] (H-GRKKRRQRRRPPQ[βAla]CWMSPRHLGTC-OH; disulfide 15-25; N-terminus and C-terminus assumed) | decreased NF-κB transcriptional response | significantly lower | partially reverted | not reduced | More than 80% | increased proteasomal activity | reduced the nuclear levels | up to 1.5% | 60 | 150 | significantly increased | safe, well tolerated and non-toxic |  | 
2 | N.N.[Cl][Pt][Cl] [cisplatin, cisdiammine-dichloro-platinum, reference compound] |  |  |  |  |  |  |  |  |  |  |  |  | twofold higher | 6.00
